Assay [1] relates to C. elegans strain TJ1060. Description: Parametric survival models (Weibull frailty), goodness of fit, combining replicates, meta-analysis. More on the design: species or system Caenorhabditis elegans. Here is the method: Parametric survival models with Weibull baseline hazards and Gamma frailty were fitted to replicate-specific data using the R package flexsurv. A likelihood ratio test was used to compare models that assume simple temporal rescaling to models that allow varying degrees of departure from temporal rescaling. The best model for each replicate was selected using a likelihood ratio test and the goodness of fit (GOF) of the best model is evaluated using a chi-square GOF test. To combine data across different replicates, we performed fixed-effect and random-effect meta-analyses for each parameter in the best model. Briefly, the fixed-effect meta-analysis estimates were derived using Inverse Variance Weighting (IVW) in which the estimates from each replicate were weighted by the inverse of their variance estimates. The meta-analysis estimates were then calculated simply as the weighted average of estimates from all replicates. The fixed-effect meta-analysis assumes that there is insignificant variation between the estimates of the same parameter across different replicates. The random-effect meta-analysis also derives the estimates by assigning weights to estimates from each replicate, but in this case the weights take into account the variation of estimates across replicates. […]

The subject of assay [2] is E. coli (strain OP50). Kind of assay: Disk diffusion test. Type of assay: cell-based, Escherichia coli. The source says:
C. elegans are bacteriophores and the E. coli (OP50) monoxenic diet can colonize the pharynx and intestine, resulting in death. Consequently, antibiotics are known to extend C. elegans lifespan. In addition, iron chelating compounds, such as EDTA have been reported to have antibiotic properties.
Background: Agar diffusion results depend on both activity and mobility in agar.

Assay [3] relates to Fe^2+/Fe(total) in anterior intestinal cells. Description: XANES imaging of iron speciation. The assay is classed as in vivo, Caenorhabditis elegans. Conditions: for age-related increase in the Fe^2+ fraction: anterior intestinal region. As to the method:
Adult C. elegans were removed from NGM, washed four times in excess ice-cold S-basal (0.1 M NaCl; 0.05 M KHPO4 at pH 6.0). Samples were transferred onto 0.5 μm-thick silicon nitride (Si3N4) window (Silson), excess buffer wicked away and then the slide was frozen in situ under a laminar stream of 100° K. dry nitrogen (N2) gas.
The beam energy was selected using a Si(311) double-crystal monochromator with a resolution of ˜0.5 eV. !XANES imaging was achieved by recording Fe XRF at 106 incident energies spanning the Fe Kedge (7112 eV). Measurement energy interval was commensurate with anticipated structure in the XANES:
As for XFM, !XANES measurements used a beam spot ^˜2×2 jim but data was recorded using continuous scanning at 0.2 mm sec^−1 (binned at 2 jim intervals). Transit time through each virtual pixel was 10 ms and the incident X-ray intensity at 7455 eV was ^˜1.67×10^10 photons s^−1. These imaging parameters gave a total dose associated with the qXANES measurement estimated at ^˜5 MGy. This value is commensurate with doses typically delivered during bulk X-ray absorption spectroscopy. qXANES Analysis
The XANES spectra from an iron foil (50.1 jig cm^−2, Micromatter Canada) was measured to monitor the energy calibration of the beamline. The maxima of the first peak in the derivative spectra of the iron foil was subsequently defined as 7112.0 eV. The energy stability of beamline has been determined at <0.25 eV over 24 hrs making energy drift over the course of a scan negligible. Consistency of the measured edge positions in conjunction with stability of beam position and flux recorded in ion chambers upstream the specimen position provide confidence that energy stability was high through the duration of the experiment. Small position drifts were aligned by cross-correlation of the calcium map which remains essentially constant throughout the energy series.
The aligned qXANES image series is stack of images, one per incident energy allowing the XANES of individual cells to be assessed. Previous work has shown that the distribution of calcium is a useful marker for the position of C. elegans intestinal cells, and we used this information to identify regions of interest in the qXANES stack corresponding to anterior intestinal cells. Anterior intestinal cells were chosen due to their consistent and robust iron content.
As all points on the specimen represent a heterogenous mixture of iron binding species the resulting XANES spectra are admixtures with contributions from all of these components. The technical particulars of the XFM beamline (being primarily designed for elemental mapping) are not optimized for high resolution spectroscopy and our XANES spectra are relatively sparse. For iron K-edge XANES the abrupt increase in absorption coefficient at the critical threshold obscures the presence of […] and 1s→4p electronic transitions. It has been shown that the relative intensity of these transitions provides the proportional contribution of Fe^2+ and Fe^3+ to the XANES and can be assessed by interrogating the first derivative of the XANES spectra.

[4] abbreviates: TJ1060, Day 8, anterior intestinal cells.
Where [5] appears, read: aged animals under intervention.

Counter-ions that a name gives are not always drawn.

For the molecule `O=C(N/N=C/c1ccccc1O)c1ccncc1` [SIH, Salicylaldehyde isonicotinoyl hydrazone], the “risk of death (hazard) in early adulthood” value in assay [1] (compared to control populations, rose precipitously in late life) was “greatly reduced”. The “inhibition of E. coli (strain OP50) growth” value in assay [2] is reported as “no evidence for inhibition”. Further, the “Mean Fe^2+/Fe(total)” value in assay [3] (setting [4]) is reported as 0.236. Besides, the “Fe^2+ fraction of the total iron” value in assay [3] (setting [5]) was “≈ 0.2”. Besides, the “age-related increase in the Fe^2+ fraction” value in assay [3] is on record as “normalized to that of a young animal”.

Turning to `Clc1cccc(CNC2=Nc3ccccc3NC23CCNCC3)c1` [Lip-1, N-[(3-chlorophenyl)methyl]-spiro[piperidine-4,2′(1′H)-quinoxalin]-3′-amine], in assay [1], the “rate of mortality in the post-reproductive period (late-life)” value is “markedly reduced”. The “inhibition of E. coli (strain OP50) growth” value in assay [2] is on record as “no evidence for inhibition”. The “Mean Fe^2+/Fe(total)” value in assay [3] (setting [4]) is listed as 0.231. The “Fe^2+ fraction of the total iron” value in assay [3] (setting [5]) is listed as “≈ 0.2”. Also, in assay [3], the “age-related increase in the Fe^2+ fraction” value was “normalized to that of a young animal”.

Regarding `CCOC(=O)/C=C\C(=O)OCC` [DEM, Diethyl maleate], in assay [3] (4 day old wild type worms, lethal glutathione depletion by DEM), the “Fe^2+ fraction of the total iron” value was “about 0.3”. Besides, in assay [3] (N2, Day 4 + DEM), the “Mean Fe^2+/Fe(total)” value is given as 0.310. In addition, in assay [3] (wild type (N2) animals treated with DEM), the “Fe^2+/Fe(total)” value is on record as “markedly increased”.
